Experimental data as given in US10328075B2, “Method of treatment and compounds for use therein” (Baker Heart and Diabetes Institute, priority 2015, dated 2019).
No end group written: not given here.

Assays:
Type in all cases: in vivo, mouse
[1] = test system: myocardial I-R injury in C57BL/6 mice; assay: Myocardial I-R in mice: cardiac inflammation after 48 h reperfusion; settings: for Effect on LV injury score / cell infiltration (H&E) / Effect on LV macrophage (CD68+) signal / Reduction of LV neutrophil content (Ly-6B.2) / Effect on LV neutrophil (Ly-6B.2) signal (in words): 60 min ischaemia, 48 h reperfusion
Description: (§1) Male C57BL/6 mice were breed and housed in the AMREP Animal Centre and maintained under a 12 h light/dark cycle. After anaesthesia (i.p., ketamine 80 mg/kg, xylazine 20 mg/kg and atropine 1.2 mg/kg), mice were randomly assigned to 24 h, 48 h and 7 days reperfusion groups and underwent reversible left arterial descending (LAD) ligation as described (Gao XM, 2011; JMCC, 50; Gao XM, 2000, JMCC). Following sedation, mice were intubated and ventilated (Harvard apparatus, MA, USA) with room air mixed with oxygen (tidal volume 0.25 mL, 150 breath/min), and placed on a heating pad. A left thoractomy will be made via the ˜third intercostal space, where the beating heart was located.
(§2) The LAD was reversibly ligated using 7-0 silk suture with a slipknot enclosing two releasing rings. Regional ischaemia was confirmed by pale colour of the ligated area. Air was then evacuated from the chest, the cavity was closed and normal respiration was restored. After 40-60 min of ischaemia, blood flow through the left coronary artery was re-established by releasing the slipknot. Sham-operated mice underwent identical surgical procedures except the coronary arteries were not ligated. Three cohorts of mice were scheduled. Cohort 1 was subjected to 40 min ischaemic-24 h reperfusion for the assessment of cardiac necrosis. Cohort 2 was subjected to 60 min occlusion with 48 h reperfusion for the quantification of cardiac and systemic inflammation. The last cohort was subjected to 7 d reperfusion and early cardiac fibrosis was assessed.
(§3) Treatment with study drugs: Animals were randomly assigned to different groups and all treatments were administrated 5 min prior to reperfusion of the LAD. The peptide Ac2-26 (1 mg kg^−1) (Chemieliva, Chongqing, China) and its vehicle (10% dimethyl sulfoxide (DMSO) in saline) were intravenously (i.v.) injected via the tail vein. […] Mice then received drug or vehicle injections daily until the experimental endpoint. The two different vehicles groups reflect different study drug solubility and administration routes.
Assessment of cardiac inflammation: LV tissue embedded in OCT compound following 60 min ischaemia and 48 h reperfusion were sectioned at 6 μm for immunofluorescent analysis. Sections were pre-incubated with 4% paraformaidehyde for 20 min and 10% normal goat serum for a further 30 min. Sections were then incubated at room temperature (RT) with either CD68+ primary antibody or Ly-6B.2 primary antibody (1:200, ABD Serotec, Raleigh, USA) for 1 h, followed 30 min incubation with the Alexa Fluor 546 secondary antibody (1:200, Invitrogen, Carlsbad, USA), to detect cardiac macrophage and neutrophil infiltration, respectively. Finally, sections were incubated with 0.001% Hoechst 33342 (Invitrogen, Melbourne, Australia) for 30 min, to elicit nuclear staining. Single images were photographed using a Nikon A1R confocal microscope (Nikon Instruments Inc., NY, USA) under 20× magnification, and 9×9 single images were then automatically stitched together using NIS-Elements AR software (version 4.10 for Windows, Nikon Instruments Inc., NY, USA) to form each whole LV section. The images for infarct area were captured under 40× magnification, and the stitched images were then analysed using Fiji software (version 1.48c for Max OS X, National Institutes of Health, USA). The threshold was set for each image, to enable optimal sensing of red fluorescence intensity above threshold, and the software then automatically quantified these red fluorescent signals.
Assessment of cardiac histology and fibrosis: LV hearts fixed in NBF after 40 min ischaema and 7 d reperfusion were embedded in paraffin by the Alfred Pathology Service (Melbourne, Australia) and sectioned at 4 μm with a Leica 2135 microtome (Leica Microsystems, Wetzlar, Germany). Sections were stained with haematoxylin and eosin (H&E) for assessment of myocardial morphology, or picrosirius red (0.1%, Fluka, Bucks, Switzerland; pH2) for cardiac collagen deposition. […]

[2] = test system: myocardial I-R injury in C57BL/6 mice; assay: Myocardial I-R in mice: systemic inflammation after 48 h reperfusion
Description: as §1, §2, §3
Assessment of systemic inflammation: Blood samples collected from mice subjected to 60 min ischaemia and 48 h reperfusion were diluted 1:20 into 2% acetic acid to lyse the red blood cells for total WBC counting, using a haemocytometer. Blood smears were stained using a hemacolor staining kit (Merck millipore, Melbourne, Australia) and then examined under 60× magnification using an Olympus Biological CHS microscope (Olympus Inc., Tokyo, Japan) for manual counting of neutrophils, lymphocytes and monocytes per 100 WBCs.
Animal Surgery: Adult C57BL/6 mice were randomly assigned to myocardial ischemia-reperfusion (I-R) injury or sham in vivo. Anesthetized mice (ketamine 80 mg/kg, xylazine 20 mg/kg and atropine 1.2 mg/kg, KXA, i.p.) underwent reversible left arterial descending (LAD) ligation as described (Gao et al. 2000 & Gao et al. 2011). Following sedation, mice were intubated and ventilated (Harvard apparatus, MA, USA) with room air mixed with oxygen (tidal volume 0.25 mL, 150 breaths/min), and placed on a heating pad. A left thoractomy was be made around the third intercostal space, where the beating heart was located. The LAD was reversibly ligated using 7-0 silk suture with a slipknot enclosing two releasing rings. Regional ischemia was confirmed by pale color of the ligated area. Air was then evacuated from the chest, the cavity closed and normal respiration restored. Blood flow through the left coronary artery was subsequently re-established at the end of the ischemic period (i.e. reperfusion) by releasing the slipknot. Three distinct cohorts of mice were studied. Cohorts 1 and 2 were subjected to 40 mins ischemia with either 24 h or 7 days reperfusion, optimal timepoints for the assessment of cardiac necrosis and early cardiac remodeling in vivo, respectively. Cohort 3 was subjected to 60 mins LAD occlusion with 48 h reperfusion, for the quantification of cardiac and systemic inflammation. […]

[3] = Plasma levels and pharmacokinetics in mice; settings: for Tmax / half-life: mouse, in vivo, Table 9, mice
[4] = 48 h reperfusion, listed as Cmpd17b

Molecule | Effect on cardiac inflammation 48 h post I-R ([1]; 50 mg/kg i.p.) | Effect on LV injury score / cell infiltration (H&E) [1] | Effect on LV macrophage (CD68+) signal [1] | Reduction of LV neutrophil content (Ly-6B.2) [1] | Effect on LV neutrophil (Ly-6B.2) signal (in words) ([1]; 50 mg/kg i.p.) | Cardioprotection: Inflammation ([1]; Table 9) | Effect on circulating IL-1β ([2]; 48 h reperfusion) | Effect on circulating lymphocytes ([2]; 48 h reperfusion) | Effect on circulating monocytes ([2]; 48 h reperfusion) | Effect on circulating neutrophils ([2]; 48 h reperfusion) | Effect on total circulating WBC ([2]; 48 h reperfusion) | Effect on circulating lymphocytes [2, 4] | Effect on total circulating WBC [2, 4] | Tmax [3] | half-life [3] | Effect on LV neutrophil (Ly-6B.2) signal (in words) ([1]; 50 mg/kg i.p., listed as Cmpd43, 50 mg/kg) | Effect on systemic inflammation / early inflammatory response 48 h post I-R ([2]; 50 mg/kg i.p.) | Plasma level approximately 20 h after the final dose (in words) ([3]; mice subjected to 7 days reperfusion, 50 mg/kg/day i.p.)
COc1cccc(Cc2cc(C)nn(C(C)C(=O)Nc3ccc(Br)cc3)c2=O)c1 (stereo not drawn) [BIDI-001, N-(4-bromophenyl)-2-[5-(3-methoxybenzyl)-3-methyl-6-oxo-6H-pyridazin-1-yl]-propionamide] | reduces cardiac inflammation | not | tended to be reduced | ~50% | significantly attenuated the Ly-6B.2 neutrophil signal by almost half | ↓↓ | significantly blunted | tended to reduce | without affecting | absent | tended to reduce | significantly blunted | absent | 0.5 h | 7.6 h | – | – | –
CC(C)C1C(NC(=O)Nc2ccc(Cl)cc2)C(=O)N(c2ccccc2)N1C (stereo not drawn) [BIDI-002] | – | significantly attenuated | tended to be reduced | – | – | – | – | significantly increased | significantly increased | – | – | – | – | 2 h | 3.8 h | absent | not | micromolar range
Cc1cc(Cc2cccnc2)c(=O)n(CC(=O)Nc2ccc(Cl)cc2)n1 [MIPS-0010396] | – | – | – | – | – | – | – | – | – | – | – | – | – | 1 h | 11.7 h | – | – | –
Ac2-26: Annexin-A1 N-terminal peptide, peptide ANX-A1 mimetic (Ac-AMVSEFLKQAWFIENEEQEYVQTVK; UniProt P04083 2-26, looked up, fragment) | – | significantly inhibited | non-significant trend | approximately 35% | – | – | – | – | – | – | did not significantly alter | – | – | – | – | – | – | –
